Data from PMC12040169 (PLOS Biology, 2025).

Test: in vitro
Conditions: human, hela cells, % viability

Row | Structure (SMILES) | viability at 28.5 h, 10 µM [%]
1 | O=C(NCC1COc2ccccc2O1)N1CCN(c2cc(C(F)(F)F)ccn2)CC1 (stereo not shown) [CBK156432] | 88.2
2 | CC(C)c1ccc(C(C)NC(=O)c2cccn(CC(=O)NC3CCCC3)c2=O)cc1 (stereo not shown) [CBK286018] | 91.3
3 | Cc1ccc(OCC(=O)O/N=C(\N)c2ccccn2)cc1C [CBK264755] | 101
4 | CC(C)(C)NC(=O)Cn1nc(-c2cc3c(s2)CCC3)oc1=O [CBK284714] | 101
5 | O=c1nc(-c2cc(Br)cs2)[nH]c2ccc(Cl)cc12 [CBK018959] | 90.5
6 | N#Cc1cc(Nc2ccc(Cc3ccncc3)cc2)c([N+](=O)[O-])cc1C#N [CBK264090] | 93.9
7 | Cc1c(C)n(Cc2ccco2)c2ncnc(NCCC(=O)O)c12 [CBK307564] | 86.8
8 | CCc1nc2ccc(C(=O)NCC3CCCCC3)cn2c1N(C)Cc1ccc(OC)cc1 [CBK145568] | 91.1
9 | O=C(CC1CCCCC1)N1CCC2(CCCNC2)C1 (stereo not shown) [CBK137154C] | 91.5
10 | CCc1nc(-c2ccc(C)c(S(=O)(=O)N3CCN(c4ccccc4)CC3)c2)no1 [CBK294434] | 98.3
11 | Cc1cc(C)n(CCCC(=O)N2CCc3ncc(Cl)cc3C2)n1 [CBK284852] | 103
12 | Cc1cccc(/C=C2/SC(=S)N(CC(=O)O)C2=O)n1 [CBK265146] | 82.9
13 | NC(=O)NC(Cc1c[nH]c2ccccc12)C(=O)O (stereo not shown) [CBK218895] | 105
14 | Cc1nc2c(c(=O)[nH]1)CN(C(=O)c1cc(C3CC3)oc1C)CC2 [CBK283650] | 103
15 | Cc1cc(C)c(C)c(S(=O)(=O)Nc2cc(S(=O)(=O)N3CCOCC3)ccc2F)c1C [CBK269698] | 61.9
16 | O=c1n(CC2CCCCC2)c2ccccc2n1S(=O)(=O)c1cccc(Cl)c1 [CBK106521] | 91.4
17 | COc1ccc(Br)cc1S(=O)(=O)NCC(=O)Nc1ccc(F)cc1 [CBK042223] | 98.1
18 | O=C(O)C(c1c[nH]c2cc(CO)ccc12)N1CCCN(c2ccc(C(F)(F)F)cn2)CC1 (stereo not shown) [CBK286845] | 85.3
19 | COc1cccc(C(=O)N2CCC(Cc3cccc(-c4cccs4)c3)(C(N)=O)CC2)c1 [CBK285781] | 97.8
20 | COC(=O)CSc1nnc(COc2ccc3c(c2)OCO3)n1-c1ccccc1 [CBK266139] | 107
21 | c1cnc(NCc2cc3n(n2)CCN(CC2CCCCC2)C3)cn1 [CBK307592] | 80
22 | Cc1ccc(S(=O)(=O)NC[C@H]2O[C@@H](CC(=O)N3CCc4ccccc43)[C@H](O)[C@@H]2O)cc1 [CBK288917] | 91.3

Row | Structure (SMILES) | viability at 28.5 h, 10 µM [%]
23 | O=C(COc1ccc2ccccc2c1)N1CCN(S(=O)(=O)c2ccc([N+](=O)[O-])cc2)CC1 [CBK264277] | 98
24 | O=C(Nc1cccc2ccccc12)C(c1ccccc1)N1CCOCC1 (stereo not shown) [CBK269388] | 102
25 | COc1ccc(N2C(=O)c3ccc(C(=O)OCC(=O)c4ccccc4Cl)cc3C2=O)c([N+](=O)[O-])c1 [CBK265514] | 83.7
26 | CC(C)CNC(=O)c1cccc(NC(=O)N2CCC2c2cccs2)c1 (stereo not shown) [CBK306927] | 99.9
27 | NC(=O)CN1CC2(CCN(CC(=O)Nc3ccc(F)c(Cl)c3)CC2)c2ccccc21 [CBK126790] | 99.2
28 | O=C(NCC1(CCO)CC1)c1c[nH]nc1-c1cc2ccccc2o1 [CBK306163] | 94.5
29 | COc1cc(/C=N/NC(=O)Cc2nnc(N)s2)cc(OC)c1OC [CBK262027] | 109
30 | COCCOc1ccc(-c2noc([C@@H]3CCCN3)n2)cn1 [CBK288883] | 97.4
31 | Nc1nnc(SCC(=O)N2CCN(C(c3ccccc3)c3ccccc3)CC2)n1-c1ccccc1 [CBK266696] | 108
32 | O=C(N/N=C\c1ccc(OCc2ccccc2)cc1)C1COc2cc3ccccc3cc2O1 (stereo not shown) [CBK262764] | 95.6
33 | CN1CCCc2c1oc1c(OCc3cccnc3)cccc1c2=O [CBK007904] | 92.1
34 | Nc1ccc(-c2cn3ccnc3c(NCC3CC3)n2)cc1 [CBK066677] | 101
35 | COCOc1ccc(-c2nc(-c3cnc(OC)nc3OC)cnc2N)cc1 [CBK063991] | 91.9
36 | O=S(=O)(Nc1nnn[nH]1)c1ccc(-c2ccon2)s1 [CBK062391] | 97.7
37 | Clc1ccc(COc2ccnc(N3CCCN(CC4CC4)CC3)n2)cc1Cl [CBK083963] | 81.3
38 | COc1ccc(O)c(-c2c(-c3ccc(C)cc3)n[nH]c2C)c1 [CBK287961] | 93.1
39 | Cc1cc(CNC(=O)CCc2c(C)nc3nc(N)nn3c2C)ccc1F [CBK306212] | 91.9
40 | O=C(Nc1ccc(C(F)(F)F)cc1)c1cc(Br)cnc1NCc1cccnc1 [CBK076419] | 111
41 | COc1ccc2ccccc2c1[S+]([O-])NC1CCCCC1 (stereo not shown) [CBK022400] | 80.7
42 | CN1CCN(C2=NC(=O)CC(C(=O)Nc3ccccc3)N2)CC1 (stereo not shown) [CBK267884] | 97.1
43 | Cc1cccc(CC(=O)N2CCC(Cc3ccccc3-c3ccccc3C)(C(N)=O)CC2)c1 [CBK285728] | 93.4
44 | N#Cc1nonc1NCn1nnc2ccccc21 [CBK062650] | 81.7

Row | Structure (SMILES) | viability at 28.5 h, 10 µM [%]
45 | N#CCCN(Cc1ccco1)C(=O)c1cccc(NC(=O)C2CC2)c1 [CBK304014] | 99.5
46 | O=C(O)CN(Cc1ccccc1)Cc1ccccc1 [CBK260903] | 104
47 | O=C(COc1ccc(-c2ccccc2)cc1Cl)N1CCN(C(=O)C2CC2)CC1 [CBK295640] | 96.8
48 | O=C(CNC(=O)c1ccc(Br)cc1)NC1CCCC1 [CBK269591] | 90.3
49 | COc1ccc(OCCNC(=O)c2cc(-c3cccnc3)cnc2N2CCOCC2)cc1 [CBK076341] | 96.2
50 | CCOC(=O)c1c(NC(=O)CN2CCOCC2)sc2c1CCC2 [CBK262548] | 102
51 | CCCC(=O)c1ccc(S(=O)(=O)N2CCCN(Cc3ccc(F)c(C(F)(F)F)c3)CC2)cc1 [CBK062918] | 93
52 | Cc1c(C)n(Cc2ccco2)c2ncnc(NC(C)C(=O)O)c12 (stereo not shown) [CBK307561] | 106
53 | CN1CCN(C(=O)CC[C@@H]2CNC(=O)[C@@H]3C[C@H](NC(=O)c4ccccc4)CN23)CC1 [CBK289014] | 86.7
54 | C(=N\N1CCOCC1)/c1ccc2c(c1)OCO2 [CBK026446] | 108
55 | c1ccc(CN2CCN(Cc3ccccc3)C2c2ccco2)cc1 [CBK260888] | 99.6
56 | COc1ccc(N(CC(=O)Nc2ccc3c(c2)oc2ccccc23)S(=O)(=O)c2ccccc2)cc1 [CBK264814] | 104
57 | N#CCCN(C(=O)NCCCN1CCCC1=O)C1CCCCC1 [CBK156379] | 85.5
58 | CN1C(=O)c2ccccc2OCCCCC[C@H]2NCCC[C@H]21 [CBK292075] | 110
59 | COc1ccc(-c2nc(=S)c3c(n2CCCN(C)C)CC(C)(C)OC3)cc1 [CBK267844] | 104
60 | CN(Cc1ccc(O)cc1)C(=O)NC1CCCc2c1cnn2CCO (stereo not shown) [CBK305354] | 86.3
61 | O=C(NCCc1cccs1)NC1CCCc2c1cnn2CCO (stereo not shown) [CBK306324] | 92.6
62 | CN(C)CCCNC=C1C(=O)CC(C)(C)CC1=O [CBK262043] | 92.2
63 | CC(NC(=O)C1(Cn2ccnc2)CC1)c1cccnc1 (stereo not shown) [CBK306812] | 97.3
64 | O=C(Nc1ccnn1Cc1cc(Br)cs1)c1ccc2ncsc2c1 [CBK296713] | 105
65 | Cc1cc(COc2nccnc2OC2CCN(CC(=O)Nc3c(C)cccc3C)CC2)no1 [CBK082958T] | 103
66 | Cc1cc(COC(=O)N2CCCC(C(F)(F)F)C2)cc(C)n1 (stereo not shown) [CBK200150] | 92.8

Row | Structure (SMILES) | viability at 28.5 h, 10 µM [%]
67 | c1ccc(Oc2ccc(Nc3ccc(-c4cccc5cccnc45)cn3)cc2)cc1 [CBK037643] | 105
68 | COc1ccc(S(=O)(=O)N2CCN(C(=O)COc3ccc(C)cc3)CC2)cc1 [CBK263354] | 90.2
69 | CCOC(=O)c1cn(CC2(CO)CCC2)cc(Oc2ccccc2)c1=O [CBK306698] | 97.2
70 | O=C(NCCOc1cccc(Cl)c1Cl)c1ccccc1-c1ccccc1 [CBK267390] | 40.6
71 | COc1ccc(N2C(=O)CC(NNC(N)=O)C2=O)cc1 (stereo not shown) [CBK263080] | 92.1
72 | Cc1cc(/C=C/C2=CCN(C)CC2)c(C)n1C1CC1 [CBK283858] | 85.9
73 | CCC(C)(C)c1ccc(S(=O)(=O)NCC2CC2)cc1 [CBK044994] | 93
74 | O=C(CC1=C(O)C(=O)c2ccccc2C1=O)c1ccccc1 [CBK262002] | 80.5
75 | Cc1ccc(N2C(=O)CC(Sc3ncccc3C(=O)O)C2=O)c(C)c1 (stereo not shown) [CBK269377] | 91.9
76 | O=S(=O)(c1cnc(Cl)c(Br)c1)N1CCC2(CC1)OCCO2 [CBK044070] | 97.5
77 | Cc1nc(N2CCCCC2)ncc1C(=O)NCCSc1nncn1C [CBK306955] | 81.1
78 | CS(=O)(=O)N(CC(=O)O)c1cccc2ccccc12 [CBK262420] | 101
79 | O=C(NCCCc1nc2cc(F)ccc2[nH]1)[C@@H]1C[C@@H]2C=C[C@H]1C2 [CBK281665] | 103
80 | COc1ccc(-c2cc(C(=O)Nc3ccc(S(N)(=O)=O)cc3)c3ccccc3n2)cc1OC [CBK263635] | 93.1
81 | CCn1cc(CN2C3CCC2CC(O)(c2ccc(F)cc2)C3)cn1 (stereo not shown) [CBK282741] | 77.3
82 | COc1cc(CNc2ccccc2Cl)ccc1OCC(=O)O [CBK287045] | 89.7
83 | O=S(=O)(CCN1CCN(C(c2ccccc2)c2ccccc2)CC1)c1ccc(Cl)cc1 [CBK074810] | 92
84 | Cc1cc(C)n2ncc(C(=O)N3CCCC3c3ccsc3)c2n1 (stereo not shown) [CBK305616] | 94.6
85 | Cc1onc(-c2ccccc2Cl)c1C(=O)N(C)C [CBK160325] | 102
86 | CCC(Oc1cccc(Cl)c1)C(=O)NN1CCN(C)CC1 (stereo not shown) [CBK268135] | 116
87 | O=C(Cc1ccc2c(c1)CCCO2)Nc1c(OCCn2cccn2)ccc2ccccc12 [CBK285679] | 96.9
88 | COC(=O)[C@H]1CN(C(=O)c2ccncc2)C[C@@H]1c1ccc(F)cc1 [CBK283509] | 94.2
